Data taken from US20040019082A1, “Reversible infertility in male mice following oral administration of alkylated imino sugars: a non-hormonal approach to male contraception” (United Therapeutics Corporation, priority 2002, published 2004).

Assays:
[1] = humans; cited from earlier work
[2] = test system: mouse models with impaired GSL degradation; conditions: in vivo; cited from earlier work
epididymal spermatozoa = experiment: Fluorescence microscopy of epididymal spermatozoa (nuclear morphology, acrosomal antigens); assay type: in vivo, mouse
Protocol: Fluorescence microscopy—For immunofluorescence, freshly exised vasa deferentia were stripped and caudae epididymides were dissociated with forceps in M2 medium, and spermatozoa were allowed to disperse for 15 min. The resultant suspensions were used to prepare smears on glass slides. After drying in air for 1 hr, cells were fixed in methanol for 2 min., dried and stored at room temperature or 4° C. for one to five days. Before immunostaining smears were immersed in methanol for 5 min., dried, and wetted in PBS containing 0.5% BSA and 0.15 M glycine (PBG). Slides were stained with monoclonal antibodies, either Mab18.6 (1:20 in PBG (Moore, H. D., Smith, C. A., Hartman, T. D. & Bye, A. P. (1987) Gamete Res 17, 245-9)), anti-sp56 (1:67 in PBG, clone 7C5, QED Bioscience (Cheng, A., Le, T., Palacios, M., Bookbinder, L. H., Wassarman, P. M., Suzuki, F. & Bleil, J. D. (1994) J Cell Biol 125, 867-78), and goat anti-mouse immunoglobulins γ and light chains-specific fluorescein isothiocyanate-conjugate (Ortho) according to van Dongen et al. (van Dongen, J. M., Willemsen, R., Ginns, E. I., Sips, H. j., Tager, J. M., Barranger, J. A. & Reuser, A. J. (1985) Eur J Cell Biol 39, 179-189.) Following immunostaining, nuclei were stained for 2 min in 5 μg/ml Hoechst 33342 (Molecular Probes); slides were rinsed in distilled water, and mounted with Vectashield (Vector). Fluorescent probes were examined using an Olympus BX50 microscope equipped with a Princeton Instruments CCD camera. Images were aquired, false-coloured, and overlaid with Metamorph v3.5 software, and further processed with Adobe Photoshop.

alpha-glucosidase 1 = target: T1, alpha-glucosidase 1 (Homo sapiens, UniProt Q13724); conditions: involved in N-glycan synthesis; cited from earlier work
T1 sequence (Q13724 1-837): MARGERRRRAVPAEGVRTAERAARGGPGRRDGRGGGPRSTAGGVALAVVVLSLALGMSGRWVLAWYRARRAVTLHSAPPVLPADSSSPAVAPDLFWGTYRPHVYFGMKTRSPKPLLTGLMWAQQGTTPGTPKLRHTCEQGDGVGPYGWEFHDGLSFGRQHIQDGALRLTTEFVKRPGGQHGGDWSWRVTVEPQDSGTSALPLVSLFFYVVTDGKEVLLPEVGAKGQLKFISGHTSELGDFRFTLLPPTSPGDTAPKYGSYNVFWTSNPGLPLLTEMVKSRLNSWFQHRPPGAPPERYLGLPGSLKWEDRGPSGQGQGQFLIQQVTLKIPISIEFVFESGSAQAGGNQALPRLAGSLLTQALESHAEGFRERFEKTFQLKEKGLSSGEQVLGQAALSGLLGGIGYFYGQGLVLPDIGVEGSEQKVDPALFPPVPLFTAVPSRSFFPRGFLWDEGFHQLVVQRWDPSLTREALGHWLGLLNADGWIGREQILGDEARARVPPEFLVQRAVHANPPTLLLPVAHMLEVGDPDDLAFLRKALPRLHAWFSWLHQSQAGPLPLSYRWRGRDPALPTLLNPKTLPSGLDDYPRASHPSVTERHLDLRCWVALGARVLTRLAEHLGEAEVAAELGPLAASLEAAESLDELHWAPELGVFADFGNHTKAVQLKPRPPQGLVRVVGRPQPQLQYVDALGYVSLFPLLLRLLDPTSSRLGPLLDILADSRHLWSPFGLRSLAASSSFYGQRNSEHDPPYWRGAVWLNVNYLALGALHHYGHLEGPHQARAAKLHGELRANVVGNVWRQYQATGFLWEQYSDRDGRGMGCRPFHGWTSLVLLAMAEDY

seminiferous tubules = experiment: Testis histology; assay type: in vivo, mouse; conditions: 50 mg/kg/day (FIG. 4B)
Description: Histology and Scanning electronmicroscopy—Testes were obtained from mice perfused with 4% paraformaldehyde, 1% gluteraldehyde, kept in the fixative for two days, and transferred to 70% ethanol. Tissues were post-fixed with 2% osmium tetroxide, embedded in araldite, sectioned at 1 μm, and stained with Toluidine Blue. Sections were examined with a Zeiss Axioskop II, and images were acquired with an Axiocam camera, operated by Axiovision 3.0 software.

CCCCN1C[C@H](O)[C@@H](O)[C@H](O)[C@H]1CO [NB-DNJ, N-butyldeoxynojirimycin]
tolerability [1]: well tolerated | therapeutic effect [2]: therapeutically effective | fraction of spermatozoa stained with Mab18.6 or anti-sp56 (acrosomal antigens) (epididymal spermatozoa; 15 mg/kg/day): below 10% | nuclear shape of cauda epididymal sperm cells (epididymal spermatozoa; 150 mg/kg/day (FIGS. 4D-4F)): various abnormally shaped nuclei | frequency of antibody staining (acrosomal antigens) (epididymal spermatozoa; 1200 mg/kg/day compared with 15-150 mg/kg/day): more frequent | frequency of normal nuclear morphology (epididymal spermatozoa; 1200 mg/kg/day compared with 50-150 mg/kg/day, p<0.01): significantly more often | incidence of (near)-normal acrosomal staining among Mab18.6-positive cells (epididymal spermatozoa; 15 to 1200 mg/kg/day, average, n=3): 31±10% | percentage of caudal spermatozoa with (near)-normal nuclei (epididymal spermatozoa; minimal dose to achieve complete infertility): below 6% | inhibition of alpha-glucosidase 1 (alpha-glucosidase 1): potent inhibitor | morphology of nuclei of mature spermatids (seminiferous tubules): aberrant, heterogeneous morphology | vacuolization in seminiferous tubules versus controls (seminiferous tubules): more extensive vacuolization
